Experimental data published in patent publication US9920040B2, “GPR40 agonists for the treatment of type II diabetes” (Janssen Pharmaceutica NV, priority 2015, dated 2018).
pEC50: −log10 of the molar value. “And” between values parts separate entries of the source, which are not always exact repeats. Equal entries are not always repeated.

Legend:
[1] = biological target: T1, human GPR40 (Homo sapiens, UniProt O14842); test: GPR40 calcium flux assay, human GPR40; type: cell-based; conditions: transfected HEK293 cells stably expressing human GPR40; multiple values = repeated testing; read-out: hGPR40 Ca^2+ Assay EC50
T1 construct: expressed in transfected cells
T1 sequence (O14842 whole entry): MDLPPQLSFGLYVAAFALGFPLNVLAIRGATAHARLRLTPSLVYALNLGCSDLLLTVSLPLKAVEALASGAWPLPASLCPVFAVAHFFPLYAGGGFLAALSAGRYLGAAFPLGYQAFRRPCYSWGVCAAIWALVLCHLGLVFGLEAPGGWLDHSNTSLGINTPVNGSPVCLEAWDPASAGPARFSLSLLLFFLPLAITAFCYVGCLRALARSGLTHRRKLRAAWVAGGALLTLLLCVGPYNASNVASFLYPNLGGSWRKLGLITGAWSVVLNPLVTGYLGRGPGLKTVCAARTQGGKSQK
Description: (§1) Compounds were tested in a calcium flux assay using transfected HEK293 cells stably expressing either human GPR40 or rat GPR40. Human GPR40 expressing cells were cultured in DMEM-High Glucose media supplemented with 10% fetal bovine serum, 1×L-Glutamine, 1×Penicillin/Streptomycin and 500 μg/mL G418. Rat GPR40 expressing cells were cultured in DMEM-High Glucose media supplemented with 10% fetal bovine serum and 1 μg/mL puromycin. Cells were plated into poly-D-lysine coated 384-well plates and cultured overnight in a 37° C. humidified tissue culture incubator under 5% CO2/[…] atmosphere. On the day of the experiment, the culture media was replaced with assay buffer (HBSS, 20 mM HEPES, 0.1% BSA) and the cells incubated at 37° C. for 1 h. Calcium-sensitive fluorescent dye (Fluo 8 No-Wash Calcium Dye, ABD Bioquest) was then added and the cells incubated for another 30 min at 37° C. followed by 15 min at room temperature while protected from the light. The cell plate and a plate of diluted compounds of Formula (I) were loaded into a fluorescent plate reader that added compounds onto the cells while measuring the fluorescence intensity of each well. The plate reader recorded fluorescence intensity at 1 second intervals for 8 min and provided the data for analysis in an Excel format. EC50 values were calculated using Prism (GraphPad) software.

[2] = biological target: T2, rat GPR40 (Rattus norvegicus, UniProt Q8K3T4); test: GPR40 calcium flux assay, rat GPR40; type: cell-based; conditions: transfected HEK293 cells stably expressing rat GPR40; multiple values = repeated testing; read-out: rGPR40 Ca^2+ Assay EC50
T2 construct: expressed in transfected cells
T2 sequence (Q8K3T4 whole entry): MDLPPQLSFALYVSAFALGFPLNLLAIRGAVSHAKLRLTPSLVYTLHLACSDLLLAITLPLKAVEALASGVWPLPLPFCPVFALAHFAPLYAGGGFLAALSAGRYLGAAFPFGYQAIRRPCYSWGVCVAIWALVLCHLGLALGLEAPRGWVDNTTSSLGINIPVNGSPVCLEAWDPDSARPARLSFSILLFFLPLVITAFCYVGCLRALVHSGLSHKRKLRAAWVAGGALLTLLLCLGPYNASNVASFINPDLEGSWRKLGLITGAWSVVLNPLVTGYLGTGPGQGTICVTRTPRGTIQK
Description: as §1

| pEC50 [1] | pEC50 [2] | SMILES |
| --- | --- | --- |
| 7.28 and 7.46 and 7.47 | 7.04 and 7.05 | COc1cc(-c2scc(COc3cccc([C@@H](CC(=O)O)C4CC4)c3)c2C2=CCCC2(C)C)c2ccsc2c1 [Cpd 10, (3S)-3-cyclopropyl-3-[3-[[4-(5,5-dimethylcyclopenten-1-yl)-5-(6-methoxybenzothiophen-4-yl)-3-thienyl]methoxy]phenyl]propanoic acid] |
| 6.95 and 6.99 and 7.57 | 7.36 and 6.84 | COc1cc(-c2onc(COc3cccc([C@@H](CC(=O)O)C4CC4)c3)c2OCC2CC(C)(C)C2)c(F)cn1 [Cpd 8, (3S)-3-cyclopropyl-3-[3-[[4-[(3,3-dimethylcyclobutyl)methoxy]-5-(5-fluoro-2-methoxy-4-pyridyl)isoxazol-3-yl]methoxy]phenyl]propanoic acid] |
| 6.67 and 6.75 | – | COc1ccc(F)c(-c2onc(COc3cccc([C@@H](CC(=O)O)C4CC4)c3)c2-c2sccc2C)c1 [Cpd 33, (3S)-3-cyclopropyl-3-[3-[[5-(2-fluoro-5-methoxy-phenyl)-4-(3-methyl-2-thienyl)isoxazol-3-yl]methoxy]phenyl]propanoic acid] |
| 6.59 and 6.79 | – | COc1cc(-c2scc(COc3cccc([C@@H](CC(=O)O)C4CC4)c3)c2C2=CCCC2(C)C)ccn1 [Cpd 31, (3S)-3-cyclopropyl-3-[3-[[4-(5,5-dimethylcyclopenten-1-yl)-5-(2-methoxy-4-pyridyl)-3-thienyl]methoxy]phenyl]propanoic acid] |
| 8.15 and 8.30 | – | COc1ccc(F)c(-c2onc(COc3cccc([C@@H](CC(=O)O)C4CC4)c3)c2OC2CCCCC2)c1 [Cpd 46, (3S)-3-[3-[[4-(cyclohexoxy)-5-(2-fluoro-5-methoxy-phenyl)isoxazol-3-yl]methoxy]phenyl]-3-cyclopropyl-propanoic acid] |
| 7.28 and 7.29 and 7.66 and 7.89 and 7.06 and 7.15 | – | COc1ccc(F)c(-c2scc(COc3cccc([C@@H](CC(=O)O)C4CC4)c3)c2C2=CCCC2(C)C)c1 [Cpd 13, (3S)-3-cyclopropyl-3-[3-[[4-(5,5-dimethylcyclopenten-1-yl)-5-(2-fluoro-5-methoxy-phenyl)-3-thienyl]methoxy]phenyl]propanoic acid] |
| 6.62 and 6.63 | – | CN(C)c1cccc(-c2scc(COc3cccc([C@@H](CC(=O)O)C4CC4)c3)c2C2=CCCC2(C)C)c1 [Cpd 17, (3S)-3-cyclopropyl-3-[3-[[5-[3-(dimethylamino)phenyl]-4-(5,5-dimethylcyclopenten-1-yl)-3-thienyl]methoxy]phenyl]propanoic acid] |
| 7.59 and 7.62 | – | COc1cccc(-c2scc(COc3cccc([C@@H](CC(=O)O)C4CC4)c3)c2C2=CCCC2(C)C)c1 [Cpd 26, (3S)-3-cyclopropyl-3-[3-[[4-(5,5-dimethylcyclopenten-1-yl)-5-(3-methoxyphenyl)-3-thienyl]methoxy]phenyl]propanoic acid] |
| 7.52 and 7.59 | – | COc1ccc(F)c(-c2onc(COc3cccc([C@@H](CC(=O)O)C4CC4)c3)c2C=C(C)C)c1 [Cpd 36, (3S)-3-cyclopropyl-3-[3-[[5-(2-fluoro-5-methoxy-phenyl)-4-(2-methylprop-1-enyl)isoxazol-3-yl]methoxy]phenyl]propanoic acid] |
| 6.52 and 6.82 | – | COc1ccc(-c2scc(COc3cccc([C@@H](CC(=O)O)C4CC4)c3)c2C2=CCCC2(C)C)c(F)c1 [Cpd 18, (3S)-3-cyclopropyl-3-[3-[[4-(5,5-dimethylcyclopenten-1-yl)-5-(2-fluoro-4-methoxy-phenyl)-3-thienyl]methoxy]phenyl]propanoic acid] |
| 6.97 and 7.05 | – | COc1ccc(F)c(-c2scc(COc3cccc([C@@H](CC(=O)O)C4CC4)c3)c2C2CC2)c1 [Cpd 14, (3S)-3-cyclopropyl-3-[3-[[4-cyclopropyl-5-(2-fluoro-5-methoxy-phenyl)-3-thienyl]methoxy]phenyl]propanoic acid] |
| 7.62 | 7.16 | COc1ccc(F)c(-c2onc(CCc3cccc(C(CC(=O)O)C4CC4)c3)c2C2CC2)c1 (stereo not drawn) [Cpd 7, 3-cyclopropyl-3-[3-[2-[4-cyclopropyl-5-(2-fluoro-5-methoxy-phenyl)isoxazol-3-yl]ethyl]phenyl]propanoic acid] |
| 8.30 | 8.05 | COc1cc(-c2onc(COc3cccc([C@@H](CC(=O)O)C4CC4)c3)c2OC2CC(C)(C)CC(C)(C)C2)c(F)cn1 [Cpd 2, (3S)-3-cyclopropyl-3-[3-[[5-(5-fluoro-2-methoxy-4-pyridyl)-4-(3,3,5,5-tetramethylcyclohexoxy)isoxazol-3-yl]methoxy]phenyl]propanoic acid] |
| 7.43 and 7.46 and 8.22 | 7.16 and 7.34 and 7.25 | COc1ccc(F)c(-c2onc(COc3cccc([C@@H](CC(=O)O)C4CC4)c3)c2OCC2CC(C)(C)C2)c1 [Cpd 5, (3S)-3-cyclopropyl-3-[3-[[4-[(3,3-dimethylcyclobutyl)methoxy]-5-(2-fluoro-5-methoxy-phenyl)isoxazol-3-yl]methoxy]phenyl]propanoic acid] |
| 7.80 and 7.82 | – | COc1cc(OC)cc(-c2scc(COc3cccc([C@@H](CC(=O)O)C4CC4)c3)c2C2=CCCC2(C)C)c1 [Cpd 23, (3S)-3-cyclopropyl-3-[3-[[5-(3,5-dimethoxyphenyl)-4-(5,5-dimethylcyclopenten-1-yl)-3-thienyl]methoxy]phenyl]propanoic acid] |
| 7.17 and 7.25 | – | COc1ccc(F)c(-c2onc(COc3cccc([C@@H](CC(=O)O)C4CC4)c3)c2OCCC(F)(F)F)c1 [Cpd 49, (3S)-3-cyclopropyl-3-[3-[[5-(2-fluoro-5-methoxy-phenyl)-4-(3,3,3-trifluoropropoxy)isoxazol-3-yl]methoxy]phenyl]propanoic acid] |
| 6.74 and 6.85 | – | CCOc1c(COc2cccc([C@@H](CC(=O)O)C3CC3)c2)noc1-c1cc(OC)ncc1F [Cpd 51, (3S)-3-cyclopropyl-3-[3-[[4-ethoxy-5-(5-fluoro-2-methoxy-4-pyridyl)isoxazol-3-yl]methoxy]phenyl]propanoic acid] |
| 7.29 and 7.35 | – | COc1cc(-c2onc(COc3cccc([C@@H](CC(=O)O)C4CC4)c3)c2C=C(C)C)c(F)cn1 [Cpd 52, (3S)-3-cyclopropyl-3-[3-[[5-(5-fluoro-2-methoxy-4-pyridyl)-4-(2-methylprop-1-enyl)isoxazol-3-yl]methoxy]phenyl]propanoic acid] |
| 7.49 and 7.57 | – | COc1ccc(F)c(-c2snc(COc3cccc([C@@H](CC(=O)O)C4CC4)c3)c2C2=CCCC2(C)C)c1 [Cpd 30, (3S)-3-cyclopropyl-3-[3-[[4-(5,5-dimethylcyclopenten-1-yl)-5-(2-fluoro-5-methoxy-phenyl)isothiazol-3-yl]methoxy]phenyl]propanoic acid] |
| 6.60 and 6.89 | – | COc1ccc(F)c(-c2scc(COc3cccc([C@@H](CC(=O)O)C4CC4)c3)c2C(C)C(F)(F)F)c1 (stereo partly drawn) [Cpd 19, (3S)-3-cyclopropyl-3-[3-[[5-(2-fluoro-5-methoxy-phenyl)-4-(2,2,2-trifluoro-1-methyl-ethyl)-3-thienyl]methoxy]phenyl]propanoic acid] |
| 7.28 | 6.86 | COc1ccc(F)c(-c2onc(COc3cc(C(CC(=O)O)C4CC4)c(Cl)cn3)c2C2=CCCC2(C)C)c1 (stereo not drawn) [Cpd 9, 3-[5-chloro-2-[[4-(5,5-dimethylcyclopenten-1-yl)-5-(2-fluoro-5-methoxy-phenyl)isoxazol-3-yl]methoxy]-4-pyridyl]-3-cyclopropyl-propanoic acid] |
| 7.64 and 7.68 | – | COc1ccc(F)c(-c2onc(COc3cccc([C@@H](CC(=O)O)C4CC4)c3)c2-c2ccc(C(C)(C)C)s2)c1 [Cpd 45, (3S)-3-[3-[[4-(5-tert-butyl-2-thienyl)-5-(2-fluoro-5-methoxy-phenyl)isoxazol-3-yl]methoxy]phenyl]-3-cyclopropyl-propanoic acid] |
| 7.08 and 7.13 | – | COc1cncc(-c2scc(COc3cccc([C@@H](CC(=O)O)C4CC4)c3)c2C2=CCCC2(C)C)c1 [Cpd 28, (3S)-3-cyclopropyl-3-[3-[[4-(5,5-dimethylcyclopenten-1-yl)-5-(5-methoxy-3-pyridyl)-3-thienyl]methoxy]phenyl]propanoic acid] |

| SMILES | pEC50 [1] | pEC50 [2] |
| --- | --- | --- |
| COc1ccc(F)c(-c2onc(COc3cccc([C@@H](CC(=O)O)C4CC4)c3)c2OC2CC(C)(C)C(C)(C)C2)c1 [Cpd 1, (3S)-3-cyclopropyl-3-[3-[[5-(2-fluoro-5-methoxy-phenyl)-4-(3,3,4,4-tetramethylcyclopentoxy)isoxazol-3-yl]methoxy]phenyl]propanoic acid] | 8.52 | 8.22 |
| COc1cc(-c2onc(COc3cccc([C@@H](CC(=O)O)C4CC4)c3)c2OC2CC(C)(C)C(C)(C)C2)c(F)cn1 [Cpd 4, (3S)-3-cyclopropyl-3-[3-[[5-(5-fluoro-2-methoxy-4-pyridyl)-4-(3,3,4,4-tetramethylcyclopentoxy)isoxazol-3-yl]methoxy]phenyl]propanoic acid] | 8.30 | 8.00 |
